Source: patent US4894388A, “Glycosidase inhibitors and use thereof” (priority 1988, dated 1990)

Columns and labels:
α-L-fucosidase = target: T1, α-L-fucosidase (Homo sapiens, UniProt P04066); assay: Inhibition of α-L-fucosidase in human liver extract; format: biochemical; settings: for inhibition at 1000 µM: 1 mM inhibitor, 0.5 mM substrate, optimal pH, mean of 2-4 determinations
T1 construct: The glycosidase activities in an extract of normal human liver were assayed; from tissue; host or cells: post mortem human liver, 37,000 g supernatant
T1 sequence (P04066 32-466): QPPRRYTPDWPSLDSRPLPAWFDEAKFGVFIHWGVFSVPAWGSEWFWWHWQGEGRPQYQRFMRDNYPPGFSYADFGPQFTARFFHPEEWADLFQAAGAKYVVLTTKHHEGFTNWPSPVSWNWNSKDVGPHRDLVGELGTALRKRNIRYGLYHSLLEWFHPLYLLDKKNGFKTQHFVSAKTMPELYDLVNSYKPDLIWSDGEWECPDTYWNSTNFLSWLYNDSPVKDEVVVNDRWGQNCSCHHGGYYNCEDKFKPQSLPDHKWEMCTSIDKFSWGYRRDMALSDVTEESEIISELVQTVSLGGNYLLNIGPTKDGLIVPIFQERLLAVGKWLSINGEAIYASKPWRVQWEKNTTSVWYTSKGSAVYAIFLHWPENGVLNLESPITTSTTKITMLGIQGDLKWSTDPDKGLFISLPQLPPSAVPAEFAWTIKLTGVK
Experimental: The fraction of activity lost in the presence of the inhibitor was calculated for each pH; =α-L-fucosidase activity; o=inhibition (%).
(§1) Post mortem human liver, which had been stored at -20° C. until required was homogenized in deionized water (50%, w/v) in a Potter-Elvehjem homogenizer and then centrifuged at 37,000 g for 30 min in an MSE 18 centrifuge. The resultant supernatant was used as the source of enzymic activities.
(§2) The glycosidase activities in an extract of normal human liver were assayed by using the appropriate fluorigenic 4-methylumbelliferyl glycoside substrate (Koch-Light, Haverhill, Suffolk, U.K.) with a concentration of 0.5 mM at the optimal pH of each enzyme [Burditt et al., Clin. Chim. Acta 140, 201-209 (1980)]. Human liver acidic (lysomal) and neutral (cystosolic) α-D-mannosidases were assayed similarly at their pH-optima, of 4.0 and 6.5, respectively, after separation by affinity chromatography on concanavalin A-Sepharose® (Pharmacia Ltd, Milton Keynes, Bucks, U.K.) [Phillips et al., Biochem. J. 153, 579-587 (1976)]. The residual intermediate (Golgi) α-mannosidase II activity in extracts of fibroblasts from a patient with the lysosomal storage disease, mannosidosis, was assayed at pH 5.75 using the synthetic substrate (Burditt et al, Ibid.). The specificity of the inhibitors was determined by assaying the glycosidases in the presence and absence of a 1 mM solution of each compound. The nature of the inhibition and the value of Ki were determined using the Dixon graphical procedure.
(§3) Enzymic activities were measured in the presence and absence of 1 mM inhibitor. Inhibition (%) was calculated as the fraction of activity lost in the presence of inhibitor. The values are means of two to four independent determinations.

β-D-mannosidase = target: T2, β-D-mannosidase (Homo sapiens, UniProt O00462); assay: Inhibition of β-D-mannosidase in human liver extract; format: biochemical; settings: 1 mM inhibitor; 0.5 mM substrate; optimal pH; mean of 2-4 determinations
T2 construct: The glycosidase activities in an extract of normal human liver were assayed; from tissue; host or cells: post mortem human liver, 37,000 g supernatant
T2 sequence (O00462 18-879): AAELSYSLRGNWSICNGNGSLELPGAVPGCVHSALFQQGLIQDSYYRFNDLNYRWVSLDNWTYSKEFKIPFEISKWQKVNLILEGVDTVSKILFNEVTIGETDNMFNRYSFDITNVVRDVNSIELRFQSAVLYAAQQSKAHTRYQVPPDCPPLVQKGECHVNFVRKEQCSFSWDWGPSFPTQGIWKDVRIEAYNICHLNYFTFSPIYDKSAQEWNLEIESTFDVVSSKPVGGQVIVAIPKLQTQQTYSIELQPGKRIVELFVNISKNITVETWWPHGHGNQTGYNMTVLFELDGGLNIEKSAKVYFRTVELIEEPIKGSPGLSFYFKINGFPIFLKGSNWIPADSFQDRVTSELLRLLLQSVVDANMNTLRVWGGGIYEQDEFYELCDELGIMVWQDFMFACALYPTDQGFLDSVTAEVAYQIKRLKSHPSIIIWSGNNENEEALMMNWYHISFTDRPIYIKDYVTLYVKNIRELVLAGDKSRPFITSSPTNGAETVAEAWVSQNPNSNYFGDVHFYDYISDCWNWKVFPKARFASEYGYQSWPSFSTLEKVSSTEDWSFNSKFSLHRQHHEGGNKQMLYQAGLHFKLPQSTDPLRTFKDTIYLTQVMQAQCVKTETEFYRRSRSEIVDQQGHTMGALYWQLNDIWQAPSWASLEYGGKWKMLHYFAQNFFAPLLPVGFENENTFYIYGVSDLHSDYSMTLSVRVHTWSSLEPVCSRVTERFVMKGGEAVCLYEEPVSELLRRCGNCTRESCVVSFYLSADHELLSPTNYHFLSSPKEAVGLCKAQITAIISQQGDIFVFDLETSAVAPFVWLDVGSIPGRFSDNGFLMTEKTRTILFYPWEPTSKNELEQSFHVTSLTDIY
Experimental: as §1, §2, §3

| SMILES | inhibition at 1000 µM (α-L-fucosidase) [%] | inhibition at 1000 µM (β-D-mannosidase) [%] | nature of the inhibition (α-L-fucosidase; Dixon graphical procedure) | pH-dependence of inhibition (α-L-fucosidase; FIG. 1) | Ki (α-L-fucosidase; pH 5.5, Dixon graphical procedure) [µM] |
| --- | --- | --- | --- | --- | --- |
| OC[C@H](O)[C@@H]1NC[C@@H](O)[C@H]1O [DIA, 1,4-dideoxy-1,4-imino-L-allitol] | 60 | 14 | – | – | – |
| OC[C@H](O)[C@H]1[C@H](O)[C@H](O)CN1Cc1ccccc1 [N-benzyl DIA, N-benzyl-1,4-dideoxy-1,4-imino-L-allitol] | 74 | 0 | competitive | pH-dependent | 50 |
| CN1C[C@@H](O)[C@@H](O)[C@@H]1[C@@H](O)CO [N-methyl DIA, N-methyl-1,4-dideoxy-1,4-imino-L-allitol] | 28 | 4 | – | – | – |
